Key:
Type in all cases: in vivo
[1] = system: barnyardgrass (Echinochloa crus-galli); experiment: Test A preemergence, directed soil spray, visual injury rating; settings: 0 is no effect, 100 is complete control
Text: (§1) Seeds of plant species selected from barnyardgrass (Echinochloa crus-galli), kochia (Kochia scoparia), ragweed (common ragweed, Ambrosia elatior), ryegrass, It. (Italian ryegrass, Lolium multiflorum), foxtail, giant (giant foxtail, Setaria faberii), and pigweed (Amaranthus retroflexus), were planted into a blend of loam soil and sand and treated preemergence with a directed soil spray using test chemicals formulated in a non-phytotoxic solvent mixture which included a surfactant.
(§2) At the same time, plants selected from these weed species and also wheat (Triticum aestivum), corn (Zea mays), blackgrass (Alopecurus myosuroides), and galium (catchweed bedstraw, Galium aparine), were planted in pots containing the same blend of loam soil and sand and treated with postemergence applications of test chemicals formulated in the same manner Plants ranged in height from 2 to 10 cm and were in the one- to two-leaf stage for the postemergence treatment. Treated plants and untreated controls were maintained in a greenhouse for approximately 10 d, after which time all treated plants were compared to untreated controls and visually evaluated for injury. Plant response ratings, summarized in Table A, are based on a 0 to 100 scale where 0 is no effect and 100 is complete control. A dash (-) response means no test result.

[2] = system: foxtail, giant (giant foxtail, Setaria faberii); experiment: as above; settings: 0 is no effect, 100 is complete control
Text: as §1, §2

[3] = system: kochia (Kochia scoparia); experiment: as above; settings: 0 is no effect, 100 is complete control
Text: as §1, §2

[4] = system: pigweed (Amaranthus retroflexus); experiment: as above; settings: 0 is no effect, 100 is complete control
Text: as §1, §2

[5] = system: ragweed (common ragweed, Ambrosia elatior); experiment: as above; settings: 0 is no effect, 100 is complete control
Text: as §1, §2

[6] = system: ryegrass, It. (Italian ryegrass, Lolium multiflorum); experiment: as above; settings: 0 is no effect, 100 is complete control
Text: as §1, §2

[7] = system: barnyardgrass (Echinochloa crus-galli); experiment: Test B flooded paddy test, visual rating; settings: Flood, 250 g ai/ha, applied to paddy water, rated after 13 to 15 d
Method: (§3) Plant species in the flooded paddy test selected from rice (Oryza sativa), sedge, umbrella (small-flower umbrella sedge, Cyperus difformis), ducksalad (Heteranthera limosa), and barnyardgrass (Echinochloa crus-galli) were grown to the 2-leaf stage for testing. At time of treatment, test pots were flooded to 3 cm above the soil surface, treated by application of test compounds directly to the paddy water, and then maintained at that water depth for the duration of the test. Treated plants and controls were maintained in a greenhouse for 13 to 15 d, after which time all species were compared to controls and visually evaluated. Plant response ratings, summarized in Table B, are based on a scale of 0 to 100 where 0 is no effect and 100 is complete control. A dash (-) response means no test result.

[8] = system: ducksalad (Heteranthera limosa); experiment: Test B flooded paddy test, visual rating; settings: Flood, 250 g ai/ha, applied to paddy water, rated after 13 to 15 d
Method: as §3

[9] = system: rice (Oryza sativa); experiment: Test B flooded paddy test, visual rating; settings: Flood, 250 g ai/ha, applied to paddy water, rated after 13 to 15 d
Method: as §3

[10] = system: sedge, umbrella (small-flower umbrella sedge, Cyperus difformis); experiment: Test B flooded paddy test, visual rating; settings: Flood, 250 g ai/ha, applied to paddy water, rated after 13 to 15 d
Method: as §3

[11] = system: barnyardgrass (Echinochloa crus-galli); experiment: Test A postemergence application, visual injury rating; settings: 0 to 100 scale, 0 no effect, 100 complete control
Text: as §1, §2

[12] = system: blackgrass (Alopecurus myosuroides); experiment: as above; settings: 0 to 100 scale, 0 no effect, 100 complete control
Text: as §1, §2

[13] = system: corn (Zea mays); experiment: as above; settings: for Corn plant response rating: 0 to 100 scale, 0 no effect, 100 complete control
Text: as §1, §2

[14] = system: foxtail, giant (giant foxtail, Setaria faberii); experiment: as above; settings: for Foxtail, Giant plant response rating: 0 to 100 scale, 0 no effect, 100 complete control
Text: as §1, §2

[15] = system: galium (catchweed bedstraw, Galium aparine); experiment: as above; settings: for Galium plant response rating: 0 to 100 scale, 0 no effect, 100 complete control
Text: as §1, §2

[16] = system: kochia (Kochia scoparia); experiment: as above; settings: 0 to 100 scale, 0 no effect, 100 complete control
Text: as §1, §2

[17] = system: pigweed (Amaranthus retroflexus); experiment: as above; settings: for Pigweed plant response rating: 0 to 100 scale, 0 no effect, 100 complete control
Text: as §1, §2

[18] = system: ragweed (common ragweed, Ambrosia elatior); experiment: as above; settings: for Ragweed plant response rating: 0 to 100 scale, 0 no effect, 100 complete control
Text: as §1, §2

[19] = system: ryegrass, It. (Italian ryegrass, Lolium multiflorum); experiment: as above; settings: for Ryegrass, It. plant response rating: 0 to 100 scale, 0 no effect, 100 complete control
Text: as §1, §2

[20] = system: wheat (Triticum aestivum); experiment: as above; settings: for Wheat plant response rating: 0 to 100 scale, 0 no effect, 100 complete control
Text: as §1, §2

[21] = 31 g ai/ha, 0 is no effect, 100 is complete control

| Compound | Plant response rating (0 to 100 scale), Barnyardgrass ([1]; 125 g ai/ha) | Plant response rating (0 to 100 scale), Barnyardgrass ([1]; 500 g ai/ha) | Plant response rating (0 to 100 scale), Foxtail, Giant ([2]; 125 g ai/ha) | Plant response rating (0 to 100 scale), Kochia ([3]; 125 g ai/ha) | Plant response rating (0 to 100 scale), Pigweed ([4]; 125 g ai/ha) | Plant response rating (0 to 100 scale), Ragweed ([5]; 125 g ai/ha) | Plant response rating (0 to 100 scale), Ryegrass, It. ([6]; 125 g ai/ha) | Barnyardgrass plant response rating (0 to 100 scale, 0 is no effect, 100 is complete control) [7] | Ducksalad plant response rating (0 to 100 scale, 0 is no effect, 100 is complete control) [8] | Rice plant response rating (0 to 100 scale, 0 is no effect, 100 is complete control) [9] | Sedge, Umbrella plant response rating (0 to 100 scale, 0 is no effect, 100 is complete control) [10] | Barnyardgrass plant response rating ([11]; 125 g ai/ha) | Blackgrass plant response rating ([12]; 125 g ai/ha) | Corn plant response rating ([13]; 125 g ai/ha) | Foxtail, Giant plant response rating ([14]; 125 g ai/ha) | Galium plant response rating ([15]; 125 g ai/ha) | Pigweed plant response rating ([17]; 125 g ai/ha) | Ragweed plant response rating ([18]; 125 g ai/ha) | Ryegrass, It. plant response rating ([19]; 125 g ai/ha) | Wheat plant response rating ([20]; 125 g ai/ha) | also measured |
| --- | --- | --- | --- | --- | --- | --- | --- | --- | --- | --- | --- | --- | --- | --- | --- | --- | --- | --- | --- | --- | --- |
| Cc1nn(C)c(=O)c(-c2cccc3scnc23)c1O [Compound 1] | 0 | 20 | 0 | 0 | 0 | 0 | 0 | 0 | 0 | 0 | 0 | 0 | 0 | 0 | 0 | 0 | 0 | 0 | 0 | 0 | Plant response rating (0 to 100 scale), Foxtail, Giant ([2]; 500 g ai/ha): 20; Plant response rating (0 to 100 scale), Kochia ([3]; 500 g ai/ha): 0; Plant response rating (0 to 100 scale), Pigweed ([4]; 500 g ai/ha): 0; Plant response rating (0 to 100 scale), Ragweed ([5]; 500 g ai/ha): 20; Plant response rating (0 to 100 scale), Ryegrass, It. ([6]; 500 g ai/ha): 70; Barnyardgrass plant response rating ([11]; 500 g ai/ha): 0; Blackgrass plant response rating ([12]; 500 g ai/ha): 10; Corn plant response rating ([13]; 500 g ai/ha): 0; Foxtail, Giant plant response rating ([14]; 500 g ai/ha): 0; Galium plant response rating ([15]; 500 g ai/ha): 30; Kochia plant response rating ([16]; 125 g ai/ha): 0; Kochia plant response rating ([16]; 500 g ai/ha): 0; Pigweed plant response rating ([17]; 500 g ai/ha): 10; Ragweed plant response rating ([18]; 500 g ai/ha): 10; Ryegrass, It. plant response rating ([19]; 500 g ai/ha): 40; Wheat plant response rating ([20]; 500 g ai/ha): 0 |
| Cc1ccc2ccoc2c1-c1c(O)c(C)nn(C)c1=O [Compound 7] | 10 | 90 | 20 | 30 | 100 | 40 | 100 | 0 | 0 | 0 | 0 | 30 | 80 | 0 | 80 | 100 | 90 | 90 | 100 | 20 | Plant response rating (0 to 100 scale), Foxtail, Giant ([2]; 500 g ai/ha): 90; Plant response rating (0 to 100 scale), Kochia ([3]; 500 g ai/ha): 90; Plant response rating (0 to 100 scale), Pigweed ([4]; 500 g ai/ha): 100; Plant response rating (0 to 100 scale), Ragweed ([5]; 500 g ai/ha): 90; Plant response rating (0 to 100 scale), Ryegrass, It. ([6]; 500 g ai/ha): 100; Barnyardgrass plant response rating ([11]; 500 g ai/ha): 80; Blackgrass plant response rating ([12]; 500 g ai/ha): 90; Corn plant response rating ([13]; 500 g ai/ha): 60; Foxtail, Giant plant response rating ([14]; 500 g ai/ha): 90; Galium plant response rating ([15]; 500 g ai/ha): 100; Kochia plant response rating ([16]; 125 g ai/ha): 100; Kochia plant response rating ([16]; 500 g ai/ha): 100; Pigweed plant response rating ([17]; 500 g ai/ha): 90; Ragweed plant response rating ([18]; 500 g ai/ha): 90; Ryegrass, It. plant response rating ([19]; 500 g ai/ha): 100; Wheat plant response rating ([20]; 500 g ai/ha): 70 |
| CC(=O)Oc1c(Cl)nn(C)c(=O)c1-c1cccc2cccnc12 [Compound 71] | 20 | – | 10 | 30 | 60 | 10 | 80 | 0 | 0 | 0 | 0 | 40 | 70 | 0 | 30 | 80 | 50 | 70 | 90 | 30 | Plant response rating (0 to 100 scale), Barnyardgrass ([1]; 31 g ai/ha): 0; Plant response rating (0 to 100 scale), Foxtail, Giant ([2]; 31 g ai/ha): 0; Plant response rating (0 to 100 scale), Kochia ([3]; 31 g ai/ha): 0; Plant response rating (0 to 100 scale), Pigweed ([4]; 31 g ai/ha): 0; Plant response rating (0 to 100 scale), Ragweed ([5]; 31 g ai/ha): 0; Plant response rating (0 to 100 scale), Ryegrass, It. ([6]; 31 g ai/ha): 20; Barnyardgrass plant response rating ([11]; 31 g ai/ha): 10; Blackgrass plant response rating ([12]; 31 g ai/ha): 10; Plant response rating (0 to 100 scale), Corn [13, 21]: 0; Plant response rating (0 to 100 scale), Foxtail, Giant [14, 21]: 10; Plant response rating (0 to 100 scale), Galium [15, 21]: 60; Plant response rating (0 to 100 scale), Pigweed [17, 21]: 20; Plant response rating (0 to 100 scale), Ragweed [18, 21]: 30; Plant response rating (0 to 100 scale), Ryegrass, It. [19, 21]: 50; Plant response rating (0 to 100 scale), Wheat [20, 21]: 0 |
